How the values were obtained:
Wild-type and Akita mice [1] = assay: Insulin tolerance test (ITT); type: in vivo; conditions: 15 mM BSO, third week, 1 U/Kg insulin i.p., 6 h fast
Excerpt: (§1) Animals: C57BL/6-Ins2^Akita/J (Akita) are an excellent model for Mutant-insulin Diabetes of Youth. Akita mice suffer from diabetes due to misfolded proinsulin, as the gene that codes for proinsulin (Ins2) is mutated. […] One male Akita mice was bred to female mice and the progeny were back-crossed to obtain enough number of heterozygous and wild-type male mice. The genotype of the mice was confirmed by using methods described previously. Briefly, the polymerase chain reaction product of the amplicons from the mutated region of the Ins 2 gene were subjected to restriction enzyme digestion and the products of the digestion were separated in agarose gels. Based on the number of fragments that resulted from the digestion, the genotypes of mice were confirmed. Only heterozygous male mice were used in the experiments. After two rounds of breeding, 12 heterozygous Akita and 12 wild-type Akita mice. […] Body weight (see FIG. 1) and food consumption (see FIG. 2) was monitored weekly. […] Mice were intraperitoneally injected with 1 U/Kg body weight of insulin and blood glucose was determined at specified intervals. […] Blood glucose was measured from tail clips using AlphaTrak-2 (Parsipanny, NJ,) glucometer and compatible strips. Blood glucose was measured at 0, 5, 15, 30, 60, 90, 120, 150, 180, and 210 min after injection. […]

[2] = Effect of BSO on body weight; type: in vivo, mice; conditions: 15 mM BSO in drinking water for eight weeks, weighed weekly
Excerpt: (§2) Animals: C57BL/6-Ins2^Akita/J (Akita) are an excellent model for Mutant-insulin Diabetes of Youth. Akita mice suffer from diabetes due to misfolded proinsulin, as the gene that codes for proinsulin (Ins2) is mutated. […] One male Akita mice was bred to female mice and the progeny were back-crossed to obtain enough number of heterozygous and wild-type male mice. The genotype of the mice was confirmed by using methods described previously. Briefly, the polymerase chain reaction product of the amplicons from the mutated region of the Ins 2 gene were subjected to restriction enzyme digestion and the products of the digestion were separated in agarose gels. Based on the number of fragments that resulted from the digestion, the genotypes of mice were confirmed. Only heterozygous male mice were used in the experiments. After two rounds of breeding, 12 heterozygous Akita and 12 wild-type Akita mice. After reaching 15-weeks of age, mice in each genotype were randomized into two groups of 6 animals each (n=6/group). All mice were given either 0 mM or 15 mM of D,L-Buthionine-(S,R)-sulfoximine (BSO, Toronto Research Chemicals Inc., ON, CA) administered in drinking water. […]
Experiment 1. […] Body weight was monitored every week.
(§3) Body weight (see FIG. 1) and food consumption (see FIG. 2) was monitored weekly. […]

Wild-type and Akita mice [3] = assay: Glucose tolerance test (GTT); type: in vivo; conditions: 15 mM BSO, fifth week, 0.85 g/Kg D-glucose i.p., 6 h fast
Excerpt: as §1, with “0.85 g/Kg” for “1 U/Kg”, “D-glucose” for “of insulin”

Akita mice = assay: Effect of BSO on fasting glucose; type: in vivo; conditions: 15 mM BSO in drinking water, measured before and 1, 3, 4, 7, 8 weeks after, persisted throughout the study
Excerpt: Experimentation was done with Akita mice, which harbor a similar mutation in the proinsulin gene as human patients with MIDY, are used as a laboratory model for MIDY. […] The Akita strain is a monogenic model for phenotypes associated with type 1 diabetes. A spontaneous mutation in the insulin 2 gene leads to incorrect folding of the proinsulin protein producing toxicity in pancreatic beta-cells, reduced beta-cell mass and reduced insulin secretion. As a result, Akita mice suffer with glucose levels that are two to four-fold higher than healthy mice. […] Animals: C57BL/6-Ins2^Akita/J (Akita) are an excellent model for Mutant-insulin Diabetes of Youth. Akita mice suffer from diabetes due to misfolded proinsulin, as the gene that codes for proinsulin (Ins2) is mutated. […] One male Akita mice was bred to female mice and the progeny were back-crossed to obtain enough number of heterozygous and wild-type male mice. The genotype of the mice was confirmed by using methods described previously. […] Fasting glucose was determined using AlphaTrak-2 glucometer. […] Fasting (6 hr) blood glucose was determined from tail clips before starting the mice on BSO and 1, 3, 4, 7, and 8 weeks after treating with BSO. […]

[4] = Effect of BSO on food intake; type: in vivo, mice; conditions: 15 mM BSO in drinking water for eight weeks, measured weekly
Excerpt: as §2
Experiment 2. […] Food intake was measured every week.
as §3

glutathione = assay: Effect of BSO on blood glutathione concentration; type: in vivo, mice; conditions: after eight weeks on 15 mM BSO
Excerpt: Animals: C57BL/6-Ins2^Akita/J (Akita) are an excellent model for Mutant-insulin Diabetes of Youth. Akita mice suffer from diabetes due to misfolded proinsulin, as the gene that codes for proinsulin (Ins2) is mutated. […] One male Akita mice was bred to female mice and the progeny were back-crossed to obtain enough number of heterozygous and wild-type male mice. The genotype of the mice was confirmed by using methods described previously. Briefly, the polymerase chain reaction product of the amplicons from the mutated region of the Ins 2 gene were subjected to restriction enzyme digestion and the products of the digestion were separated in agarose gels. Based on the number of fragments that resulted from the digestion, the genotypes of mice were confirmed. Only heterozygous male mice were used in the experiments. After two rounds of breeding, 12 heterozygous Akita and 12 wild-type Akita mice. After reaching 15-weeks of age, mice in each genotype were randomized into two groups of 6 animals each (n=6/group). […] Glutathione was determined as described in experimental methods section. […] Glutathione was determined by a colorimetric method based on an enzymatic recycling method using 5,5′-dithiobis-(2-nitrobenzoic acid) as described earlier (Teitze et al). Using a standard curve with known concentrations the glutathione concentrations were determined and expressed as μg/mL blood.

## CCCCS(=N)(=O)CC[C@H](N)C(=O)O (mixture of isomers) [BSO, D,L-Buthionine-(S,R)-sulfoximine]
Wild-type and Akita mice [1]; Akita mice
  effect on insulin tolerance area under the curve: No effect
Wild-type and Akita mice [1]; wild-type mice
  effect on insulin tolerance area under the curve: No effect
[2]; Akita mice
  effect on body weight: lack of the effect
[2]; wild-type mice
  effect on body weight: lack of the effect
Wild-type and Akita mice [3]; Akita mice, baseline subtracted
  glucose tolerance area under the curve decreased to: less than 50%
Wild-type and Akita mice [3]; wild-type mice
  effect on glucose tolerance area under the curve: did affect
Akita mice
  effect on fasting (6 hr) blood glucose: Decrease in glucose levels in Akita was evident within one week
[4]; Akita mice
  effect on food intake: does not affect
[4]; wild-type mice
  effect on food intake: does not affect
glutathione; Akita mice
  effect on blood glutathione concentration: decreased
glutathione; wild-type mice
  effect on blood glutathione concentration: decreased
